Numbered stars: 1 amine (or outer) side, 2 acyl side, 3 side chain; on linkers, the order of the positions; unused ones are H or OH. Bridge positions count the residues as written; N and C are the ends. Square brackets hold non-standard residues; d marks the D form. Peptide text beside a SMILES is read from it. X1 = CC(C)CCCCCCCCC[C@H](CC(=O)[*:1])O[*:2]
What was measured:
Format in all cases: cell-based
Magnaporthe grisea = conditions: 1.56 to 12.56 μg/mL, 100 μL in cup, 25° C. for 1 to 3 days
Fusarium oxysporum = tested on: Fusarium oxysporum
[1] = tested on: Trichophyton mentagrophytes

Compound | antifungal activity (growth inhibition of test microorganism) (Magnaporthe grisea) | antifungal activity (growth inhibition of test microorganism) (Fusarium oxysporum) | antifungal activity (growth inhibition of test microorganism) [1]
CC(C)CCCCCCCCC[C@@H]1CC(=O)N[C@@H](CCC(=O)O)C(=O)N[C@@H](CC(C)C)C(=O)N[C@H](CC(C)C)C(=O)N[C@@H](C(C)C)C(=O)N[C@@H](CC(=O)O)C(=O)N[C@H](CC(C)C)C(=O)N[C@@H](CC(C)C)C(=O)O1 [surfactin] (EL[dL]VD[dL]L; linker N-C via X1) | weaker than iturin A, but slight inhibitory activities | did not show antifungal activity | 
iturin A | strong antifungal activities | strong antifungal activity | strong antifungal activities

Source: patent US20130165635A1 (priority 2010, published 2013)
